Literature values in patent publication US8092822B2, “Coatings including dexamethasone derivatives and analogs and olimus drugs” (Abbott Cardiovascular Systems Inc., priority 2008, dated 2012).

Assays:
[1] = tested on: endothelial migration
[2] = tested on: endothelial cell proliferation
[3] = tested on: human coronary artery endothelial cells; details: in vitro

Row | SMILES | effect on endothelial migration [1] | inhibition of endothelial cell proliferation [2] | inhibition of migration of human coronary artery endothelial cells [3]
1 | C[C@@H]1C[C@H]2[C@@H]3CCC4=CC(=O)C=C[C@]4(C)[C@@]3(F)[C@@H](O)C[C@]2(C)[C@@]1(O)C(=O)CO [dexamethasone, Dexamethasone] | positive effect | – | –
2 | CC(=O)O[C@H]1C(=O)[C@@]2(C)[C@H]([C@H](OC(=O)c3ccccc3)[C@]3(O)C[C@H](OC(=O)[C@H](O)[C@@H](NC(=O)c4ccccc4)c4ccccc4)C(C)=C1C3(C)C)[C@]1(OC(C)=O)CO[C@@H]1C[C@@H]2O [paclitaxel, Paclitaxel] | – | inhibit | inhibits
3 | CO[C@H]1C[C@@H]2CC[C@@H](C)[C@@](O)(O2)C(=O)C(=O)N2CCCC[C@H]2C(=O)O[C@H]([C@H](C)C[C@@H]2CC[C@H](n3cnnn3)[C@H](OC)C2)CC(=O)[C@H](C)/C=C(\C)[C@@H](O)[C@@H](OC)C(=O)[C@H](C)C[C@H](C)/C=C/C=C/C=C/1C [zotarolimus] | – | inhibit | –
